Source: publication PMC6131539, “Behavioral Effects of a Potential Novel TAAR1 Antagonist” (Frontiers in Pharmacology, 2018)

What was measured:
C57BL/6J mice = assay: Cocaine-induced locomotor activity, co-injection, C57BL/6J mice; assay type: in vivo; conditions: 60 min
Method: (§1) Experimentally naïve mice, of at least 12 weeks of age, were used for all behavioral experiments. The mice were randomly assigned to treatment or control groups, balanced by sex and weight. Locomotor activity was assessed using the automated locomotor analysis monitors (Omnitech Electronics, Columbus, OH, United States). The apparatus included four open field monitors. Each Open Field monitor consisted of sets of 16 light beams arrayed in the horizontal X and Y axes. The hardware detected beams broken by the animal, which allowed the software to determine the location of the mouse in the cage. Total distance covered by mice was used to characterize locomotor activity of the animals. The monitors were divided into four compartments (20 cm × 20 cm). Animals were tested individually for defined periods with 5-min intervals. The mice were first weighed and then placed into the apparatus, allowing for 30 min habituation. Following the habituation, the mice were removed from the al apparatus and injected with drugs (see below for administration) or vehicle and returned immediately to the locomotor chamber. The locomotor activity was then measured for additional 1 h. After the experiments, the animals were euthanized by cervical dislocation.
All drug solutions were prepared freshly on the day of the experiment and injected i.p. at the volume of 10 ml/kg. […] Amphetamine was dissolved in 0.9% saline at a concentration of 0.2 mg/mL.
Since compound 22 enhanced amphetamine-induced locomotor response, we assessed if compound 22 could also enhance cocaine-induced locomotion in WT C57BL/6J mice (Figure 3).
The locomotor activity was assessed for 60 min after the injection. […] Data are means ± SEM; N = 7–9. One way ANOVA was performed [F(3,28) = 7.138, p = 0.001] followed by Dunnett’s post hoc analyses (^∗p < 0.05, ^∗∗∗p < 0.001).

[1] = tested on: WT littermates (C57BL/6J × 129S2/Sv); assay: Basal locomotor activity in WT littermates of TAAR1-KO mice; assay type: in vivo; conditions: 5 and 25 mg/kg alone, 60 min
Method: as §1, with “The Taarl^-/- (TAAR1-KO) mice were obtained from Lundbeck ([Wolinsky et al., 2007]). All wild type (WT) and TAAR1-KO mice used for experiments were generated from TAAR1-KO heterozygous mice in a C57BL/6J x 129S1/Sv mixed background. Experimentally” for “Experimentally”, “Following the habituation, the mice were removed from the al apparatus and injected with drugs (see below for administration) or vehicle and returned immediately to the locomotor chamber.” left out, “[…] The locomotor activity was assessed for 60 min following” for “After”, “injection. […]” for “experiments, the animals were euthanized by cervical dislocation.”

Clc1ccc(CNCc2ccc(Cn3cncn3)cc2)c(Cl)c1 [compound 22]
increase in cocaine-induced locomotor activity (C57BL/6J mice; 5 mg/kg i.p. co-injected with cocaine 10 mg/kg, p = 0.03): 77% | increase in cocaine-induced locomotor activity (C57BL/6J mice; 15 mg/kg i.p. co-injected with cocaine 10 mg/kg, p = 0.02): 84% | increase in cocaine-induced locomotor activity (C57BL/6J mice; 25 mg/kg i.p. co-injected with cocaine 10 mg/kg, p = 0.003): 124% | effect on basal locomotor activity [1]: did not significantly alter
